Experiments:
CYP2C19 = biological target: T1, CYP2C19 (Homo sapiens, UniProt P33261); assay: Human liver microsome CYP inhibition assay, CYP2C19; format: in vitro ADME; conditions: role: inhibitor; human liver microsomes, probe substrate; read-out: CYP2C19 half maximal inhibitory concentration IC50
T1 construct: Mixed human liver microsomes (HLM) were purchased from Corning Inc; tissue Corning Inc; host or cells: mixed human liver microsomes (HLM)
Method: Experimental objective: To evaluate the inhibitory activity of the test substance on human liver microsomal cytochrome P450 isoenzymes (CYP1A2, CYP2C9, CYP2C19, CYP2D6, CYP3A4) using a 5-in-1 probe substrate for CYP isoenzymes.
Mixed human liver microsomes (HLM) were purchased from Corning Inc. (Steuben, New York, USA) and stored at temperatures below −70° C. prior to use.
The working solution of the test substance, which had been diluted to a series of concentrations, was added to an incubation system containing human liver microsomes, probe substrates, and auxiliary factors of the circulatory system. A control containing solvent but no test substance served as an enzyme activity control (100%). The concentration of metabolites produced from probe substrates in the samples was determined using Liquid Chromatography-Tandem Mass Spectrometry (LC-MS/MS) method. Non-linear regression analysis of the average percentage activity of the test substance against its concentration was conducted using SigmaPlot (V.11). The IC50 values were calculated using a three-parameter or four-parameter inverse log equation.

[1] = In vivo pharmacokinetics study in rats; design: species or system SD rat; conditions: rat, plasma, male SD rats, oral 2 mg/kg

T1 sequence (P33261 whole entry): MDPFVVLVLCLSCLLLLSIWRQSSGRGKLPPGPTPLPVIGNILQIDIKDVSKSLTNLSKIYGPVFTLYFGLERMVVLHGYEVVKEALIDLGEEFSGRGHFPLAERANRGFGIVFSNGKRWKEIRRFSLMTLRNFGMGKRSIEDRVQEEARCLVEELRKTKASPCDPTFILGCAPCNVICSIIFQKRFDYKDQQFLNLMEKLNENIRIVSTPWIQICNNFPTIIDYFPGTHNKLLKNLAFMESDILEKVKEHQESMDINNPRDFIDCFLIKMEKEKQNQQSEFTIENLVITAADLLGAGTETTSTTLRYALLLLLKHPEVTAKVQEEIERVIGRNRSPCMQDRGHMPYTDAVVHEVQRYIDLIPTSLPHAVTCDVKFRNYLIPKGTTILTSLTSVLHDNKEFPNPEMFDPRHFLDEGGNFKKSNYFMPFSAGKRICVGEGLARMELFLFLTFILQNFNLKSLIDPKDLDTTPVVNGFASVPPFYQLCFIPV

CCC(=O)N[C@H]1CCOc2c(-c3ccc4c(c3)CCC(=O)N4C)cncc21 (single isomer, unassigned) [Compound 037]
IC50 (CYP2C19): > 50 µM | bioavailability [1]: 157% | half-life [1]: 2.36 h | Cmax [1]: 8.29 µM | AUC(0-t) at 24 h ([1]; read-out: AUC0-24 h): 49.9 µM·h
